Test results reported in US7166597B2, “Fused pyrazole derivatives being protein kinase inhibitors” (Glaxo Group Limited, priority 2000, dated 2007).
Where two headings read alike, the source gives them in different places.

Tests used:
p38 kinase = molecular target: T1, p38 kinase (Homo sapiens, UniProt Q16539); assay: p38 Kinase Assay; format: biochemical
T1 construct: GST (N); made in house; host or cells: E. coli
Protocol: The peptide substrate used in the p38 assay was biotin-IPTSPITTTYFFFRRR-amide. The p38 and MEK6 proteins were purified to homogeneity from E. coli expression systems. The fusion proteins were tagged at the N-terminus with Glutathione-S-Transferase (GST). The maximum activation was achieved by incubating 20 uL of a reaction mixture of 30 nM MEK6 protein and 120 nM p38 protein in the presence of 1.5 uM peptide and 10 mM Mg (CH3CO2)2 in 100 mM HEPES7 pH 7.5, added to 15 uL of a mixture of 1.5 uM ATP with 0.08 uCi [g-^33P]ATP, with or without 15 uL of inhibitor in 6% DMSO. The controls were reactions in the presence (negative controls) or absence (positive controls) of 50 mM EDTA. Reactions were allowed to proceed for 60 min at room temperature and quenched with addition of 50 uL of 250 mM EDTA and mixed with 150 uL of Streptavidin SPA beads (Amersham) to 0.5 mg/reaction. The Dynatech Microfluor white U-bottom plates were sealed and the beads were allowed to settle overnight. The plates were counted in a Packard TopCount for 60 seconds. IC50 values were obtained by fitting raw data to % I=100*(1−(I−C2)/(C1−C2)), where I was […], C1 was positive control, and C2 was negative control.

[1] = molecular target: T2, JNK3 kinase (Jnk-3alpha-2) (Homo sapiens, UniProt P53779); assay: JNK3 Kinase Assay; format: biochemical
T2 construct: Jnk-3alpha-2 (as a truncated construct, residues 39 to 224) was expressed in E. coli as a GST fusion protein; Following purification the GST portion was removed by thrombin cleavage; fused on or other part: An N-terminal GST tag was used for expression and removed by thrombin cleavage before the assay
Protocol: JNK3 Kinase Assay Jnk-3alpha-2 (as a truncated construct, residues 39 to 224) was expressed in E. coli as a GST fusion protein. Following purification the GST portion was removed by thrombin cleavage. The enzyme was stored at −80° C. Substrate c-Jun was expressed as a GST fusion protein including a signal peptide (biotinylation site) in E. coli. Following purification the substrate was biotinylated on a specific lysine in the signal peptide using biotin ligase. Prior to assay Jnk-3 was pre-activated by incubation with MgATP. The enzyme (10 nM) was screened in 40 mM HEPES (pH 7.4), 150 mM NaCl, 20 mM glycerophosphate, 1 mM DTT, 0.2 mM vanadate, 200 nM biotin-c-Jun, 5 mM MgCl2 and 10 uM ATP. Inhibitors were added over a conc range of from 0 to 10 uM in DMSO (fc 3%). The reaction was stopped by the addition of 25 mM EDTA. Phospho-c-Jun was detected using homogeneous time resolved fluorescence (HTRF) with a Eu-labelled antiphosphoserine (Serine 73) and streptavidin APC.

[2] = Table 8, read-out: JNK3 kinase (inhibition of JNK3 kinase, IC50)
[3] = Table 8, compounds wherein Z is N, read-out: p38 kinase (inhibition of p38 kinase, IC50)
[4] = Table 9, p38 assays using Assay II, read-out: p38 IC50

T1 sequence (Q16539 whole entry): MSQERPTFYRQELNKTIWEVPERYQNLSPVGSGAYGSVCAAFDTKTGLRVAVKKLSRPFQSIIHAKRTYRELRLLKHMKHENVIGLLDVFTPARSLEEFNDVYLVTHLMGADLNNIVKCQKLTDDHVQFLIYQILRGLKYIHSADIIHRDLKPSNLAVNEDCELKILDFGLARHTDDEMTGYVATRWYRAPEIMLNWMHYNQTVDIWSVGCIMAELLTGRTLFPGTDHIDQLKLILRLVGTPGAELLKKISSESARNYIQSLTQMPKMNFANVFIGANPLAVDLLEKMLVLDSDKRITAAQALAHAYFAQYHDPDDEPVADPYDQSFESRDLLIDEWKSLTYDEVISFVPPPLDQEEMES
T2 sequence (P53779 39-402 limits assumed): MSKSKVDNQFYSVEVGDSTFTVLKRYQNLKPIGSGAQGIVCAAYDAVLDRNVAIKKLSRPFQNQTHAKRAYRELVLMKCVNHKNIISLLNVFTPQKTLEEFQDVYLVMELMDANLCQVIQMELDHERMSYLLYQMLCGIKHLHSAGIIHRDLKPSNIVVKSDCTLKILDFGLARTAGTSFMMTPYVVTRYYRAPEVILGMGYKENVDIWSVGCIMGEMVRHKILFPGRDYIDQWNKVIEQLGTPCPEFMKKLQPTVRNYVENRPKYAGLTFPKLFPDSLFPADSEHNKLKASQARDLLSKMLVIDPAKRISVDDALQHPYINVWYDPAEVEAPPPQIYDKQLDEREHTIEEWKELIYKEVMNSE

SMILES	IC50 ([1]; Table 9, read-out: JNK3 IC50) [µM]	IC50 (p38 kinase; [4]) [µM]	also measured
OCc1ccn2nc(-c3ccc(F)cc3)c(-c3ccncc3)c2c1 [Example 6, 2-(4-Fluorophenyl)-5-hydroxymethyl-3-(4-pyridinyl)pyrazolo[1,5-a]pyridine]	–	–	IC50 (p38 kinase; Table 7, compounds wherein Z is CH, read-out: P38 kinase (inhibition of p38 kinase, IC50)): < 0.5 µM
Fc1ccc(-c2nn3ccccc3c2-c2ccnc(NC3CC3)n2)cc1 [Example 61, N-Cyclopropyl-4-[2-(4-fluorophenyl)pyrazolo[1,5-a]pyridin-3-yl]-2-pyrimidinamine]	–	–	IC50 [1, 2]: < 0.5 µM; IC50 (p38 kinase; [3]): < 0.5 µM
Nc1nccc(-c2c(-c3ccc(F)cc3)nn3cc(C(F)(F)F)ccc23)n1 [Example 65, 4-[2-(4-Fluorophenyl)-6-trifluoromethylpyrazolo[1,5-a]pyridin-3-yl]-2-pyrimidinamine]	–	–	IC50 (p38 kinase; [3]): < 0.5 µM
OCCCNc1nccc(-c2c(-c3ccc(F)cc3)nn3cc(C(F)(F)F)ccc23)n1 [Example 72, 3-(4-[2-(4-Fluorophenyl)-6-trifluoromethylpyrazolo[1,5-a]pyridin-3-yl]-2-pyrimidinylamino)-1-propanol]	–	–	IC50 (p38 kinase; [3]): < 0.5 µM
NC(=O)c1ccc2c(-c3ccnc(NCCCO)n3)c(-c3ccc(F)cc3)nn2c1 [Example 76, 2-(4-Fluorophenyl)-3-(4-(2-(3-hydroxypropyl)amino)pyrimidinyl)-6-pyrazolo-[1,5-a]pyridinylcarboxamide]	–	–	IC50 (p38 kinase; [3]): < 0.5 µM
CN1CCN(CCCNc2nccc(-c3c(-c4ccc(F)cc4)nn4cc(C(N)=O)ccc34)n2)CC1 [Example 79, 2-(4-Fluorophenyl)-3-(4-(2-(3-(4-methylpiperazino)propyl)amino)pyrimidinyl)-6-pyrazolo-[1,5-a]pyridinylcarboxamide]	–	–	IC50 (p38 kinase; [3]): < 0.5 µM
Fc1ccc(-c2nn3cc(C(F)(F)F)ccc3c2-c2ccnc(Oc3ccccc3)n2)cc1 [Example 84, 2-(4-Fluorophenyl)-3-(2-phenoxypyrimidin-4-yl)-6-(trifluoromethyl)pyrazolo[1,5-a]pyridine]	–	–	IC50 [1, 2]: < 0.5 µM; IC50 (p38 kinase; [3]): < 0.5 µM
Cc1ccc(C)c(Oc2nccc(-c3c(-c4ccc(F)cc4)nn4cc(C(F)(F)F)ccc34)n2)c1 [Example 86, 3-[2-(2,5-Dimethylphenoxy)pyrimidin-4-yl]-2-(4-fluorophenyl)-6-(trifluoromethyl)pyrazolo[1,5-a]pyridine]	–	–	IC50 [1, 2]: < 0.5 µM; IC50 (p38 kinase; [3]): < 0.5 µM
CCN(CC)CCCCNc1nccc(-c2c(-c3ccc(F)c(Cl)c3)nn3cc(C(F)(F)F)ccc23)n1 [Example 93, N-{4-[2-(3-chloro-4-fluorophenyl)-6-(trifluoromethyl)pyrazolo-[1,5-a]pyridin-3-yl]pyrimidin-2-yl}-N-[4-(diethylamino)butyl]amine]	0.1 to 1	0.01 to 0.1	–
CCN(CC)CCCCNc1nccc(-c2c(-c3cccc(Cl)c3)nn3cc(C(F)(F)F)ccc23)n1 [Example 94, N-{4-[2-(3-chlorophenyl)-6-(trifluoromethyl)pyrazolo[1,5-a]pyridin-3-yl]pyrimidin-2-yl}-N-[4-(diethylamino)butyl]amine]	0.1 to 1	0.01 to 0.1	–
CCN(CC)CCNc1nccc(-c2c(-c3cccc(Cl)c3)nn3cc(C(F)(F)F)ccc23)n1 [Example 96, N-{4-[2-(3-chlorophenyl)-6-(trifluoromethyl)pyrazolo[1,5-a]pyridin-3-yl]pyrimidin-2-yl}-N-[2-(diethylamino)ethyl]amine]	–	0.1 to 1	–
CCCN(CCC)CCNc1nccc(-c2c(-c3ccc(C(F)(F)F)cc3)nn3cc(C(F)(F)F)ccc23)n1 [Example 97, N-[2-(dipropylamino)ethyl]-N-(4-{6-(trifluoromethyl)-2-[4-(trifluoromethyl)phenyl]pyrazolo[1,5-a]pyridin-3-yl}pyrimidin-2-yl)amine]	–	1 to 10	–
CCCN(CCC)CCNc1nccc(-c2c(-c3ccc(F)c(Cl)c3)nn3cc(C(F)(F)F)ccc23)n1 [Example 98, N-{4-[2-(3-chloro-4-fluorophenyl)-6-(trifluoromethyl)pyrazolo-[1,5-a]pyridin-3-yl]pyrimidin-2-yl}-N-[2-(dipropylamino)ethyl]amine]	1 to 10	0.1 to 1	–
CCCN(CCC)CCNc1nccc(-c2c(-c3cccc(Cl)c3)nn3cc(C(F)(F)F)ccc23)n1 [Example 99, N-{4-[2-(3-chlorophenyl)-6-(trifluoromethyl)pyrazolo[1,5-a]pyridin-3-yl]pyrimidin-2-yl}-N-[2-(dipropylamino)ethyl]amine]	1 to 10	0.1 to 1	–
CC(C)N(CCNc1nccc(-c2c(-c3ccc(F)c(Cl)c3)nn3cc(C(F)(F)F)ccc23)n1)C(C)C [Example 100, N-{4-[2-(3-chloro-4-fluorophenyl)-6-(trifluoromethyl)pyrazolo-[1,5-a]pyridin-3-yl]pyrimidin-2-yl}-N-[2-(diisopropylamino)ethyl]amine]	1 to 10	0.1 to 1	–
FC(F)(F)c1ccc(-c2nn3cc(C(F)(F)F)ccc3c2-c2ccnc(NCCN3CCCC3)n2)cc1 [Example 103, N-(2-pyrrolidin-1-ylethyl)-N-(4-{6-(trifluoromethyl)-2-[4-(trifluoromethyl)phenyl]pyrazolo[1,5-a]pyridin-3-yl}pyrimidin-2-yl)amine]	–	1 to 10	–
FC(F)(F)c1ccc(-c2nn3cc(C(F)(F)F)ccc3c2-c2ccnc(NCCN3CCCCC3)n2)cc1 [Example 108, N-(2-piperidin-1-ylethyl)-N-(4-{6-(trifluoromethyl)-2-[4-(trifluoromethyl)phenyl]pyrazolo[1,5-a]pyridin-3-yl}pyrimidin-2-yl)amine]	–	1 to 10	–
FC(F)(F)c1ccc(-c2nn3cc(C(F)(F)F)ccc3c2-c2ccnc(NCCN3CCOCC3)n2)cc1 [Example 119, N-(2-morpholin-4-ylethyl)-N-(4-{6-(trifluoromethyl)-2-[4-(trifluoromethyl)phenyl]pyrazolo[1,5-a]pyridin-3-yl}pyrimidin-2-yl)amine]	–	1 to 10	–

More lines, main results first:

IC50 ([1]; Table 9, read-out: JNK3 IC50) [µM]	IC50 (p38 kinase; [4]) [µM]	SMILES	also measured
1 to 10	0.1 to 1	CN(C)CCCNc1nccc(-c2c(-c3ccc(F)cc3)nn3cc(C(F)(F)F)ccc23)n1 [Example 87, N-[3-(dimethylamino)propyl]-N-[4-{2-(4-fluorophenyl)-6-(trifluoromethyl)pyrazolo[1,5-a]pyridin-3-yl}pyrimidin-2-yl]amine]	–
1 to 10	1 to 10	CN(C)CCCNc1nccc(-c2c(-c3ccc(C(F)(F)F)cc3)nn3cc(C(F)(F)F)ccc23)n1 [Example 88, N-[3-(dimethylamino)propyl]-N-[4-{6-(trifluoromethyl)-2-[4-(trifluoromethyl)phenyl]pyrazolo[1,5-a]pyridin-3-yl}pyrimidin-2-yl]amine]	–
1 to 10	0.01 to 0.1	CN(C)CCCNc1nccc(-c2c(-c3ccc(F)c(Cl)c3)nn3cc(C(F)(F)F)ccc23)n1 [Example 89, N-[4-{2-[3-chloro-4-fluorophenyl]-6-(trifluoromethyl)pyrazolo-[1,5-a]pyridin-3-yl}pyrimidin-2-yl]-N-[3-(dimethylamino)propyl]amine]	–
1 to 10	0.01 to 0.1	CN(C)CCCNc1nccc(-c2c(-c3cccc(Cl)c3)nn3cc(C(F)(F)F)ccc23)n1 [Example 90, N-{4-[2-(3-chlorophenyl)-6-(trifluoromethyl)pyrazolo[1,5-a]pyridin-3-yl]pyrimidin-2-yl}-N-[3-(dimethylamino)propyl]amine]	–
–	1 to 10	CCN(CC)CCNc1nccc(-c2c(-c3ccc(C(F)(F)F)cc3)nn3cc(C(F)(F)F)ccc23)n1 [Example 95, N-[2-(diethylamino)ethyl]-N-(4-{6-(trifluoromethyl)-2-[4-(trifluoromethyl)phenyl]pyrazolo[1,5-a]pyridin-3-yl}pyrimidin-2-yl)amine]	–
–	1 to 10	FC(F)(F)c1ccc(-c2nn3cc(C(F)(F)F)ccc3c2-c2ccnc(NCCCN3CCOCC3)n2)cc1 [Example 121, N-(3-morpholin-4-ylpropyl)-N-(4-{6-(trifluoromethyl)-2-[4-(trifluoromethyl)phenyl]pyrazolo[1,5-a]pyridin-3-yl}pyrimidin-2-yl)amine]	–
